# Measured values published in ChEMBL document CHEMBL1201862, “PubChem BioAssay data set” (2004).
# Active and inactive are the calls of the source.
# Key:
# [1] = molecular target: T1, DNA repair protein RAD52 homolog (Homo sapiens, UniProt P43351); type: functional, biochemical
# T1 sequence (P43351 whole entry): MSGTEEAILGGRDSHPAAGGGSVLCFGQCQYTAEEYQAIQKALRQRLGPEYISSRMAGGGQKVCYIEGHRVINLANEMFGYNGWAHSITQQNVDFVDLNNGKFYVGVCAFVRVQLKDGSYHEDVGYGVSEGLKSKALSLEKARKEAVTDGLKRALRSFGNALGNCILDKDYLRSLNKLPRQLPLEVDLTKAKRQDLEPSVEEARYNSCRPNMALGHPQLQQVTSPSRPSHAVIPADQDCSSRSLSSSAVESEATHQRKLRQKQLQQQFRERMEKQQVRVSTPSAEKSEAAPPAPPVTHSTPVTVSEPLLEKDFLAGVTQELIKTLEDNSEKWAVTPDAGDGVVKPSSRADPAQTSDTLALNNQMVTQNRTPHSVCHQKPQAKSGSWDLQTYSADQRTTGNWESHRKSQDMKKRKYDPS
# cells = settings: HEK293
# [2] = HepG2 cell cytotoxicity, dose response, cytotoxicity control, ATP luminescence, cherry-pick, set 6 (AID 1053125); type: functional, cell-based
# [3] = cytotoxicity toward NIH3T3 fibroblasts, dose response, counter-screen, cell-based, ATP luminescence, mouse fibroblasts (AID 2010); type: functional;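 note: cells exposed to compound for about 90 hours before reading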
# [4] = inhibitors of intracellular T. cruzi replication, confirmation, NIH3T3 host cells, beta-gal luminescence (AID 2044); type: functional, cell-based;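 note: intracellular parasites grown in NIH/3T3 mouse fibroblasts as host cells; luminescent beta-galactosidase reporter signal from transgenic T. cruzi replicating inside host cells; inhibitors lower the luminescence signal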
# Transthyretin = Transthyretin (Homo sapiens, UniProt P02766); assay: Luminescence-based cell-based high throughput dose response assay to identify activators of Transthyretin (TTR) transcription.; type: functional
# Caspase-9 = Caspase-9 (Homo sapiens, UniProt P55211); assay: caspase-9 enzyme inhibition, dose response, selectivity assay for caspase-6 inhibitor project, biochemical, fluorescence, plate reader, cherry-picked samples (AID 743293)
# [5] = molecular target: RNA-editing ligase 1, mitochondrial (Trypanosoma brucei brucei, UniProt P86926); assay: TbREL1 ligase inhibitors, dose response, biochemical, fluorescence, Trypanosoma brucei (AID 1117295); type: functional
# [6] = molecular target: 1-phosphatidylinositol 4,5-bisphosphate phosphodiesterase beta-3 (Homo sapiens, UniProt Q01970); assay: Fluorescence-based biochemical high throughput dose response assay to identify inhibitors of phospholipase C isozymes (PLC-B3).
# [7] = molecular target: T2, RNA-binding protein pos-1 (Caenorhabditis elegans, UniProt G5EF15); assay: inhibitors of POS-1/mex-3 RNA binding, dose response, biochemical, fluorescence polarization (AID 1964);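 note: purified POS-1 fused to maltose binding protein made in E. coli; potency of compounds blocking POS-1 binding to fluorescent RNA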
# T2 sequence (G5EF15 whole entry): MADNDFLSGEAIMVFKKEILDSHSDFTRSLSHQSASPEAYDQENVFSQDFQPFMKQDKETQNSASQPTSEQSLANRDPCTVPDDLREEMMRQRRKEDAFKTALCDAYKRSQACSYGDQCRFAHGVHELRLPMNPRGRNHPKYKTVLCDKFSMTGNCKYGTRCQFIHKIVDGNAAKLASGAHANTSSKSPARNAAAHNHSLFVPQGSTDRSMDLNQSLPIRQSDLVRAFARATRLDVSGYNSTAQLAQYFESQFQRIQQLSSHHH
# [8] = molecular target: 1-phosphatidylinositol 4,5-bisphosphate phosphodiesterase gamma-1 (Homo sapiens, UniProt P19174); assay: Counterscreen for inhibitors of phospholipase C isozymes (PLC-B3): Fluorescence-based biochemical high throughput dose response assay to identify inhibitors of phospholipase C isozymes (PLC-gamma1).
# [9] = molecular target: DNA (cytosine-5)-methyltransferase 1 (Homo sapiens, UniProt P26358); assay: DNMT1 methyltransferase inhibitors, confirmation, biochemical, fluorescent molecular beacon (AID 602386); type: functional
# [10] = molecular target: T3, Zinc finger protein mex-5 (Caenorhabditis elegans, UniProt Q9XUB2); assay: MEX-5/TCR-2 RNA interaction inhibitors, dose response, biochemical, C. elegans, fluorescence polarization (AID 1960)
# T3 sequence (Q9XUB2 whole entry): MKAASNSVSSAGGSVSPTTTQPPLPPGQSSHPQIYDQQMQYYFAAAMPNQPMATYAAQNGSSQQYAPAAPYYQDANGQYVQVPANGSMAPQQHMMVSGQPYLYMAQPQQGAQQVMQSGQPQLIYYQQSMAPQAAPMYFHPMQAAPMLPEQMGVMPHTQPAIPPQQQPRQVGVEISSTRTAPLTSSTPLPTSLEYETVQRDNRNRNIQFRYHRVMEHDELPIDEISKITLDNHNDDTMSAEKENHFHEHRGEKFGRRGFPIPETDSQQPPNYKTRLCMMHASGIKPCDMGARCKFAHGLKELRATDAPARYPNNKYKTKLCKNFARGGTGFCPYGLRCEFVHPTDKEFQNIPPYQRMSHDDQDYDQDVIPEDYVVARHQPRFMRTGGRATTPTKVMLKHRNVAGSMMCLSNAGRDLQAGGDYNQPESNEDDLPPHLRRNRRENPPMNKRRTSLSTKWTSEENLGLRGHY
# Caspase-6 = Caspase-6 (Homo sapiens, UniProt P55212); assay: human caspase-6 inhibitors, dose response, biochemical, VEID-R110 fluorescence, cherry-pick (AID 720632)
# [11] = molecular target: T4, Histone-lysine N-methyltransferase NSD2 (Homo sapiens, UniProt O96028); type: biochemical
# T4 sequence (O96028 whole entry): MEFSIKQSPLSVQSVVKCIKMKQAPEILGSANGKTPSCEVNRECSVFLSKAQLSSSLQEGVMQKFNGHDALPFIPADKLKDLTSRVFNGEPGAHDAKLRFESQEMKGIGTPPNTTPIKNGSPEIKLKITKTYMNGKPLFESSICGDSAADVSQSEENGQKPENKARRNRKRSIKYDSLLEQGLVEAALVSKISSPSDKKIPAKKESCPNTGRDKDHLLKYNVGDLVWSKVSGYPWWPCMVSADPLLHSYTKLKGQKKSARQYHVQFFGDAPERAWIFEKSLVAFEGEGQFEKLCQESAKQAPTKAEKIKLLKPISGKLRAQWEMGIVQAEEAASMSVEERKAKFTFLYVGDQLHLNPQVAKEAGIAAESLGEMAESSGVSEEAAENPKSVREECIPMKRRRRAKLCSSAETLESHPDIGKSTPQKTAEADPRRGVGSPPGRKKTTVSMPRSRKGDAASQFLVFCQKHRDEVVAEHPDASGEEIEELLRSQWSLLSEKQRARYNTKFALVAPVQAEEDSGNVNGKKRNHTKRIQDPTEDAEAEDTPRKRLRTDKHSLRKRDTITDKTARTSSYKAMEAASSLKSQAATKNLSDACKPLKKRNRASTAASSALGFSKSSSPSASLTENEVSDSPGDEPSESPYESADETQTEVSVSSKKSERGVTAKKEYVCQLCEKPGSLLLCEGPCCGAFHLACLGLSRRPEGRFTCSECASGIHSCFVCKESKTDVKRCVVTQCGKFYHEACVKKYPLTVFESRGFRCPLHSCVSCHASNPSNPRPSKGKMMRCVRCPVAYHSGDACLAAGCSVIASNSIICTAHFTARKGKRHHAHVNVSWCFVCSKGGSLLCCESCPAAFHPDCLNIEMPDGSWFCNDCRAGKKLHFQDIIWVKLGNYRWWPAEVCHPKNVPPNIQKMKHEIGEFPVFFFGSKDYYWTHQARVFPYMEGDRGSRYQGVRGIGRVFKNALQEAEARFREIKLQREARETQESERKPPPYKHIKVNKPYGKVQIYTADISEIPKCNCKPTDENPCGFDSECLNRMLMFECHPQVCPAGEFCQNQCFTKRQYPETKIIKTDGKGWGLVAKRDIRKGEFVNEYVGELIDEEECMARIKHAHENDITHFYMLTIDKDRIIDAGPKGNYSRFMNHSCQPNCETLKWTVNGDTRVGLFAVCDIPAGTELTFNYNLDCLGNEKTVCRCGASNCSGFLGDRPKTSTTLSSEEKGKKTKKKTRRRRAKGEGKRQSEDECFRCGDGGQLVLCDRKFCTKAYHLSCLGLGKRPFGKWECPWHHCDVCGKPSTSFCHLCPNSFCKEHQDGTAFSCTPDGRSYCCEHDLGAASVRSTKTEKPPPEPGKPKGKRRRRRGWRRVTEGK
# DNA (cytosine-5)-methyltransferase 1, sequence (P26358 whole entry): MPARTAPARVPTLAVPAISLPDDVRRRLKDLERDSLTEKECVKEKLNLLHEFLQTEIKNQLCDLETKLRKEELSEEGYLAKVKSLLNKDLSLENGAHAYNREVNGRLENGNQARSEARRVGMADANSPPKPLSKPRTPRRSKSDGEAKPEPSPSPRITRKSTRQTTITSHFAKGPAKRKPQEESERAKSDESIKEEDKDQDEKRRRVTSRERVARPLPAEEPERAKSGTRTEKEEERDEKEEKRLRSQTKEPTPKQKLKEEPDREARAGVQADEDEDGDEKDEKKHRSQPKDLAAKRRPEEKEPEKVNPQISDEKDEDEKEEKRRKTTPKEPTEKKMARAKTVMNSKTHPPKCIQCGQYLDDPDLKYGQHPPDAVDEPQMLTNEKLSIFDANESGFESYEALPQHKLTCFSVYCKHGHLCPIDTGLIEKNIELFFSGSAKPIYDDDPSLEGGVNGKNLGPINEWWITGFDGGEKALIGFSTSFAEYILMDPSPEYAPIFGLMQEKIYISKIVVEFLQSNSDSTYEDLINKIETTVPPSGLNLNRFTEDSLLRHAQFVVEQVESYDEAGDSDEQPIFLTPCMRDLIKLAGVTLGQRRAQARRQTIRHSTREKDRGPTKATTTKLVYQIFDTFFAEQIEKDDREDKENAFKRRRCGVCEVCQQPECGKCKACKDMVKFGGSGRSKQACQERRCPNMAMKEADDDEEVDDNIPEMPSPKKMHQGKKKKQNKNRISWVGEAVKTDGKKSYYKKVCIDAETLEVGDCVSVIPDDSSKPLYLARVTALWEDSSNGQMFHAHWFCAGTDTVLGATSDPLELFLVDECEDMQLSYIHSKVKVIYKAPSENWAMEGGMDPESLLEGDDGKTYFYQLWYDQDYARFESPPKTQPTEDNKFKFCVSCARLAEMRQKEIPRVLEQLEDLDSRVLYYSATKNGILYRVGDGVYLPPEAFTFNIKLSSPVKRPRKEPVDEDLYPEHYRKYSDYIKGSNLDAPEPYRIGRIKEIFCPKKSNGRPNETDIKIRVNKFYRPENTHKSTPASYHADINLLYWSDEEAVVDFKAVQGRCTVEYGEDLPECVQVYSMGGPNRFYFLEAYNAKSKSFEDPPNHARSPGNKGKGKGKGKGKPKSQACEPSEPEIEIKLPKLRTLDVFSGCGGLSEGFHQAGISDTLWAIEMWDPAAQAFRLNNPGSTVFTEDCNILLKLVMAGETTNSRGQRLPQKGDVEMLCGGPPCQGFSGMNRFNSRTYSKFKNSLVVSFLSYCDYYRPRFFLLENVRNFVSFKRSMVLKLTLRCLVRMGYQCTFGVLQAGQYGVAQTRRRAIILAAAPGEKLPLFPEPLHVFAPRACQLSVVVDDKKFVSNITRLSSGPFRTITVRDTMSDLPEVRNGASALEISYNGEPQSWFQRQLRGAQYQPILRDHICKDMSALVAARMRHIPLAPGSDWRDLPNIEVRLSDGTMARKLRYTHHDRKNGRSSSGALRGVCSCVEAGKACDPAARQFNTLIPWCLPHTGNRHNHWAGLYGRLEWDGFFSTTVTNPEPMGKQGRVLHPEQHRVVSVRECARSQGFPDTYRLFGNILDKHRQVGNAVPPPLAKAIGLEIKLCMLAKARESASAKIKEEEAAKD
# 1-phosphatidylinositol 4,5-bisphosphate phosphodiesterase gamma-1, sequence (P19174 whole entry): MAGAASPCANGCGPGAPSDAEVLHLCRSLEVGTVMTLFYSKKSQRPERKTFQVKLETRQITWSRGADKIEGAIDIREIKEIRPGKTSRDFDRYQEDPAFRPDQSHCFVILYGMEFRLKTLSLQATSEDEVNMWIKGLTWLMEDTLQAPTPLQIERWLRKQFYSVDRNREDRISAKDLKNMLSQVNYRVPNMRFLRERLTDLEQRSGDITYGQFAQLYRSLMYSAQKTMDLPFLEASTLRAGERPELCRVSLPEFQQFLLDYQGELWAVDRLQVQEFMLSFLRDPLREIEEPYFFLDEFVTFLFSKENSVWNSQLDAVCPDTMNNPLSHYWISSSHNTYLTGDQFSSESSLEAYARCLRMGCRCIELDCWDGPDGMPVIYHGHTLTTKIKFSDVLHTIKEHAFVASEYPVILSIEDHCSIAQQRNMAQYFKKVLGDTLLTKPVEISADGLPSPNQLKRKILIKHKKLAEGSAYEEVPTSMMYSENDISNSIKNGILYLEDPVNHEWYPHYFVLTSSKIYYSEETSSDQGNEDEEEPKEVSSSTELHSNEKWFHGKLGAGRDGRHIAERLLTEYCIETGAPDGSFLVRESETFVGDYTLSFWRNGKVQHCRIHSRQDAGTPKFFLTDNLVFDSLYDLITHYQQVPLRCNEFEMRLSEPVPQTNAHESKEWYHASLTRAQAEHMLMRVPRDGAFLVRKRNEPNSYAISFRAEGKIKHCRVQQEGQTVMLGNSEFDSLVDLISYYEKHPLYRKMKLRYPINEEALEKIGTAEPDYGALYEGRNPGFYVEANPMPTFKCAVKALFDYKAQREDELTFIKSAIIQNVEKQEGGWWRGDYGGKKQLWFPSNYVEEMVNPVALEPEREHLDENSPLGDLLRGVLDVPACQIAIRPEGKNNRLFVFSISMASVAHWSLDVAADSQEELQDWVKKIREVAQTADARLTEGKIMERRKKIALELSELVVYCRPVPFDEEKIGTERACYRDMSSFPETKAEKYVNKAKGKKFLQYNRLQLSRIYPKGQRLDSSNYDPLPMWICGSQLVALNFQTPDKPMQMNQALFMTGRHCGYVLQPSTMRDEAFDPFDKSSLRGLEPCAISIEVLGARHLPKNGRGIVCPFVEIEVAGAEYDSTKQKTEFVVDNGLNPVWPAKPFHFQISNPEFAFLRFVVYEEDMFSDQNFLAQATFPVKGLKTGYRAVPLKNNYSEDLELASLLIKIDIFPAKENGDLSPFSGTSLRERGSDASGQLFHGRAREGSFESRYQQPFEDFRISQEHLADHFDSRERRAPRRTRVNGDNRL
# RNA-editing ligase 1, mitochondrial, sequence (P86926 whole entry): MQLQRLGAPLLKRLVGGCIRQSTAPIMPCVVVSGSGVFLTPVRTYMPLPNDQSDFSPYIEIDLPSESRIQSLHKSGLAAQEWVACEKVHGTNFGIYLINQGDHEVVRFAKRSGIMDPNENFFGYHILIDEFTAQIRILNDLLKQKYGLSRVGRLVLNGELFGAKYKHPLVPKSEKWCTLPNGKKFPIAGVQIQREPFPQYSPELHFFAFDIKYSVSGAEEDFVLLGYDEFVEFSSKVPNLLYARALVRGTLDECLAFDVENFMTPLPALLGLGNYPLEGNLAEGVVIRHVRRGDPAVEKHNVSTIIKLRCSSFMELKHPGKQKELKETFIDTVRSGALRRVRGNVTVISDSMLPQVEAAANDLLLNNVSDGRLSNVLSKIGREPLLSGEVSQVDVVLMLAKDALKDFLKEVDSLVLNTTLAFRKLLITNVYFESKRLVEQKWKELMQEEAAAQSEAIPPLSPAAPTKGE
# Caspase-6, sequence (P55212 24-179 limits assumed): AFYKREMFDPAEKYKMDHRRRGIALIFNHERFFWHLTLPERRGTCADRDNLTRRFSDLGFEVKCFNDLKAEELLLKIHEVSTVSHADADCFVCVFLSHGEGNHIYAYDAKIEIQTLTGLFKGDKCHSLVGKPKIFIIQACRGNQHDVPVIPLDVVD
# Caspase-6, sequence (P55212 194-293 limits assumed): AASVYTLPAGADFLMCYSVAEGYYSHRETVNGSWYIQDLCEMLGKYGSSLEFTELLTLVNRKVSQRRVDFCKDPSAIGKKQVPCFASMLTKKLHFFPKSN
# 1-phosphatidylinositol 4,5-bisphosphate phosphodiesterase beta-3, sequence (Q01970 whole entry, the tested form may be a part): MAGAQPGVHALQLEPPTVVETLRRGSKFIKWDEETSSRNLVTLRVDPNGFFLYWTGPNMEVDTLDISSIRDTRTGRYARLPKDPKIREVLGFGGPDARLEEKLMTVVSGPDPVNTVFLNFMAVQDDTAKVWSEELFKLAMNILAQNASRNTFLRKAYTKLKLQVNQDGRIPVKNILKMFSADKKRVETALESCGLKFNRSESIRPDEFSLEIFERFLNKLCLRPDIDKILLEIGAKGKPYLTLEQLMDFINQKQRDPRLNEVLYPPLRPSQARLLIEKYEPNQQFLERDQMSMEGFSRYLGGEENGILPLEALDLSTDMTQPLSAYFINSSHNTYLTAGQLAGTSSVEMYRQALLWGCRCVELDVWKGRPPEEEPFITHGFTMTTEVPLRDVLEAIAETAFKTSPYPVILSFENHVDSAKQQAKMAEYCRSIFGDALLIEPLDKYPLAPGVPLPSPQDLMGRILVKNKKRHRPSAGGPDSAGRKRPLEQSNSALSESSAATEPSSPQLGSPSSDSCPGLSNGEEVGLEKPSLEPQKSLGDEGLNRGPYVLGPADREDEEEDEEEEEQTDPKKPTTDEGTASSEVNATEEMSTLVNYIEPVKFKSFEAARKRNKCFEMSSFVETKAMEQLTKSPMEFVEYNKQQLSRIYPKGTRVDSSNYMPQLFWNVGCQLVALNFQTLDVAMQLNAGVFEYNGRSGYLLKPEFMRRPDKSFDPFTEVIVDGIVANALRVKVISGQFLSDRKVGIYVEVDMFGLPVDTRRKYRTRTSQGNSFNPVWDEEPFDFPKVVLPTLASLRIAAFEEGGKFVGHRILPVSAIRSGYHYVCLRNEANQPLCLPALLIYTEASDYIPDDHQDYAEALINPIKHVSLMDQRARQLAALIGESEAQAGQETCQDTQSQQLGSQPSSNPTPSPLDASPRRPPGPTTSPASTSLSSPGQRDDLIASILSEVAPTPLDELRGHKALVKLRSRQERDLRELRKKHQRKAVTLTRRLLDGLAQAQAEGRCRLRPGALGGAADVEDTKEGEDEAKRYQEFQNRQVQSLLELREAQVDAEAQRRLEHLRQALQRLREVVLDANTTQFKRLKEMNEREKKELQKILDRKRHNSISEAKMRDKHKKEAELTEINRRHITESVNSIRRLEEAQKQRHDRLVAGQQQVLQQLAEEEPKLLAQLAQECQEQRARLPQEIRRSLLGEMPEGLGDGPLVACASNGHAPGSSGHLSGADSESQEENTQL
smiles,measurement,setting,value
Cc1cccn2c(=O)c3cc(C(=O)NC(C)c4ccccc4)c(=N)n(CCCn4ccnc4)c3nc12 (stereo not given),AC50,[1],4.29 µM (active)
same,AC50,cells,> 52 µM (inactive)
same,AC50,[2],> 52 µM (inactive)
Cc1nnc(SCc2ccc(Cl)cc2)nc1/C=C/N(C)C,EC50,[3],> 60 µM (not active)
same,EC50,[4],0.66 µM (active)
same,EC50,Transthyretin,> 167 µM (inactive)
Nc1cc(S(=O)(=O)O)cc([N+](=O)[O-])c1O,AC50,Caspase-9,> 70 µM (inactive)
same,IC50,[5],4.99 µM (active)
same,IC50,[6],> 123 µM (inactive)
same,EC50,[7],> 300 µM (not active)
same,IC50,[8],3.97 µM (active)
same,IC50,[9],3.2 µM (active)
same,EC50,[10],> 300 µM (not active)
same,AC50,Caspase-6,3.5 µM (active)
same,AC50,[11],16.3 µM (active)
